This is an account of results in patent publication US20260102422A1, “4'-HALOGEN CONTAINING NUCLEOTIDE AND NUCLEOSIDE THERAPEUTIC COMPOSITIONS AND USES RELATED THERETO” (priority 2019, published 2026).

The test system of one series is SARS. Nature of the series: microbe, parasite or virus in culture. To be noted: Severe acute respiratory syndrome coronavirus, Vero 76. The class given is cell-based, SARS coronavirus.
Another series has as its system HCoV-alpha 229E. Nature of the series: HCoV-alpha 229E antiviral assay. The class given is cell-based, HCoV-229E. To be noted: Human coronavirus 229E; strain 229E; Huh-7 cells.
Another series is described as follows: in vitro. To be noted: human.
For another series, the system named is HCoV-beta OC43. Nature of the series: HCoV-beta OC43 antiviral assay. The format is cell-based. To be noted: Betacoronavirus 1; strain OC43; RD cells.
Another series has as its system MERS. Nature of the series: microbe, parasite or virus in culture. The class given is cell-based, Middle East Respiratory Syndrome coronavirus.
The next series deals with SARS-CoV-2. The series can be described thus: microbe, parasite or virus in culture. The class given is cell-based. To be noted: Severe acute respiratory syndrome coronavirus 2, Calu-3.

On to `O=c1ccn([C@@H]2O[C@](F)(CO)[C@@H](O)[C@H]2O)c(=O)[nH]1` [EIDD-2749], for which the EC50 in the series with SARS is 14.1 µM; in the series on HCoV-alpha 229E, 1.67 µM; in the series with HCoV-beta OC43 it was 1.06 µM; in the series with MERS, 5.7 µM; with SARS-CoV-2 it was 1.9 µM. In addition, the 90% effect concentration (EC90) in the series on HCoV-alpha 229E was found to be 9.5 µM; with HCoV-beta OC43, 2.85 µM; in the series with MERS (Middle East respiratory syndrome-related coronavirus, Vero 76) it was 9.5 µM. The same compound gave a CC50 in “in vitro” of over 50 µM.
